Results reported in patent US20230340011A1 (Asteroid Therapeutics, priority 2022, published 2023).

Tests used:
[1] = target: LXRβ (Homo sapiens (Human), UniProt P55055); assay: In vitro assay LXRβ: PathHunter NHR CHO cells, LXRβ / Steroid Receptor Co-activator Peptide enzyme fragment complementation; format: cell-based; details: PathHunter NHR CHO cells, full-length human LXRβ and SRCP, chemiluminescent signal; read-out: LXRβ PPI
Outline: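 Enzyme fragment complementation read-out: CHO cells stably expressing ProLink-tagged full-length human LXRβ plus nuclear enzyme acceptor–SRCP fusion, seeded and held overnight at 37° C. Medium with charcoal-dextran filtered serum; final vehicle 1%. Chemiluminescence measured after signal generation.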

[2] = target: SREBP-2 (Homo sapiens (Human), UniProt Q12772); assay: In vitro assay SREBP-2: PathHunter U2OS SREBP-2 Nuclear Translocation Cell Line, U18666A-stimulated; format: cell-based; details: PathHunter U2OS SREBP-2 nuclear translocation cells, U18666A 10 μM, overnight (16 hours)

Sequence of LXRβ (P55055 whole entry, the tested form may be a part): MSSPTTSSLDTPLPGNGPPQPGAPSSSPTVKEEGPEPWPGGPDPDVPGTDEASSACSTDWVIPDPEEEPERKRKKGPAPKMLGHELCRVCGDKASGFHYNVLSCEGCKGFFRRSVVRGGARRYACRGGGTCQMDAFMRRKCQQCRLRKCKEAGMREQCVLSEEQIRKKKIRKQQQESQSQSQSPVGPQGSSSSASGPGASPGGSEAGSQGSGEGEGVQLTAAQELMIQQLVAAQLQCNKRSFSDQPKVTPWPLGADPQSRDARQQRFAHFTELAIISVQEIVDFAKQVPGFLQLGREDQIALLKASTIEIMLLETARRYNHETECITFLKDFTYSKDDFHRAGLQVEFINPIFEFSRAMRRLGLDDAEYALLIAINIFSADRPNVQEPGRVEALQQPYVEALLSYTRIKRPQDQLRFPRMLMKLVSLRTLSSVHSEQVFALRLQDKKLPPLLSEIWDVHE

Row | SMILES | EC50 [1] [nM] | IC50 [2] [nM]
1 | C[C@H](CCC(=O)N1CCN(C(=O)C2CC2)[C@@H](C)C1)[C@H]1CC[C@H]2[C@@H]3CC=C4C[C@@H](O)CC[C@]4(C)[C@H]3CC[C@]12C [Example 650, (R)-1-((S)-4-(cyclopropanecarbonyl)-3-methylpiperazin-1-yl)-4-((3S,8S,9S,10R,13R,14S,17R)-3-hydroxy-10,13-dimethyl-2,3,4,7,8,9,10,11,12,13,14,15,16,17-tetradecahydro-1H-cyclopenta[a]phenanthren-17-yl)pentan-1-one] | > 10000 | < 250
2 | C[C@H](CCC(=O)N1CCN(c2cc(N(C)C)ncn2)CC1)[C@H]1CC[C@H]2[C@@H]3CC=C4C[C@@H](O)CC[C@]4(C)[C@H]3CC[C@]12C [Example 663, (R)-1-(4-(6-(dimethylamino)pyrimidin-4-yl)piperazin-1-yl)-4-((3S,8S,9S,10R,13R,14S,17R)-3-hydroxy-10,13-dimethyl-2,3,4,7,8,9,10,11,12,13,14,15,16,17-tetradecahydro-1H-cyclopenta[a]phenanthren-17-yl)pentan-1-one] | > 10000 | < 250
3 | CCC1(O)CC2(CN(C(=O)CC[C@@H](C)[C@H]3CC[C@H]4[C@@H]5CC=C6C[C@@H](O)CC[C@]6(C)[C@H]5CC[C@]34C)C2)C1 [Example 102, (R)-1-(6-ethyl-6-hydroxy-2-azaspiro[3.3]heptan-2-yl)-4-((3S,8S,9S,10R,13R,14S,17R)-3-hydroxy-10,13-dimethy12,3,4,7,8,9,10,11,12,13,14,15,16,17-tetradecahydro-1H-cyclopenta[a]phenanthren-17-yl)pentan-1-one] | > 10000 | < 250
4 | COc1cccc(N2CCN(C(=O)CC[C@@H](C)[C@H]3CC[C@H]4[C@@H]5CC=C6C[C@@H](O)CC[C@]6(C)[C@H]5CC[C@]34C)CC2)n1 [Example 659, (R)-4-((3S,8S,9S,10R,13R,14S,17R)-3-hydroxy-10,13-dimethyl-2,3,4,7,8,9,10,11,12,13,14,15,16,17-tetradecahydro-1H-cyclopenta[a]phenanthren-17-yl)-1-(4-(6-methoxypyridin-2-yl)piperazin-1-yl)pentan-1-one] | > 10000 | < 250
5 | C[C@H](CCC(=O)N1CCC(C)(C(=O)N(C)C)CC1)[C@H]1CC[C@H]2[C@@H]3CC=C4C[C@@H](O)CC[C@]4(C)[C@H]3CC[C@]12C [Example 87, 1-((R)-4-((3S,8S,9S,10R,13R,14S,17R)-3-hydroxy-10,13-dimethyl-2,3,4,7,8,9,10,11,12,13,14,15,16,17-tetradecahydro-1H-cyclopenta[a]phenanthren-17-yl)pentanoyl)-N,N,4-trimethylpiperidine-4-carboxamide] | > 10000 | 250 to 1000
6 | C[C@H](CCC(=O)N1CCC(O)(CC(F)F)CC1)[C@H]1CC[C@H]2[C@@H]3CC=C4C[C@@H](O)CC[C@]4(C)[C@H]3CC[C@]12C [Example 151, (4R)-4-[(1R,3aS,3bS,7S,9aR,9bS,11aR)-7-hydroxy-9a,11a-dimethyl-1H,2H,3H,3aH,3bH,4H,6H,7H,8H,9H,9aH,9bH,10H,11H,11aH-cyclopenta[a]phenanthren-1-yl]-1-[4-(2,2-difluoroethyl)-4-hydroxypiperidin-1-yl]pentan-1-one] | < 250 | < 250
7 | C[C@H](CCC(=O)N(C)C)[C@H]1CC[C@H]2[C@@H]3CC=C4C[C@@](C)(O)CC[C@]4(C)[C@H]3CC[C@]12C [Example 120, (R)-4-((3S,8S,9S,10R,13R,14S,17R)-3-hydroxy-3,10,13-trimethyl-2,3,4,7,8,9,10,11,12,13,14,15,16,17-tetradecahydro-1H-cyclopenta [a]phenanthren-17-yl) -N,N-dimethylpentanamide] | > 10000 | 1000 to 10000
8 | C[C@H](CCc1ccncc1)[C@H]1CC[C@H]2[C@@H]3CC=C4C[C@@H](O)CC[C@]4(C)[C@H]3CC[C@]12C [Example 160, (3S,8S,9S,10R,13R,14S,17R)-10,13-dimethyl-17-((R)-4-(pyridin-4-yl)butan-2-yl)-2,3,4,7,8,9,10,11,12,13,14,15,16,17-tetradecahydro-1H-cyclopenta[a]phenanthren-3-ol] | > 10000 | 250 to 1000
9 | CON(CC(=O)O)C(=O)CC[C@@H](C)[C@H]1CC[C@H]2[C@@H]3CC=C4C[C@@H](O)CC[C@]4(C)[C@H]3CC[C@]12C [Example 63, N—((R)-4-((3S,8S,9S,10R,13R,14S,17R)-3-hydroxy-10,13-dimethyl-2,3,4,7,8,9,10,11,12,13,14,15,16,17-tetradecahydro-1H-cyclopenta[a]phenanthren-17-yl)pentanoyl)-N-methoxyglycine] | 250 to 1000 | > 10000
10 | COc1nnccc1N1CCN(C(=O)CC[C@@H](C)[C@H]2CC[C@H]3[C@@H]4CC=C5C[C@@H](O)CC[C@]5(C)[C@H]4CC[C@]23C)CC1 [Example 629, (R)-4-((3S,8S,9S,10R,13R,14S,17R)-3-hydroxy-10,13-dimethyl-2,3,4,7,8,9,10,11,12,13,14,15,16,17-tetradecahydro-1H-cyclopenta[a]phenanthren-17-yl)-1-(4-(3-methoxypyridazin-4-yl)piperazin-1-yl)pentan-1-one] | > 10000 | < 250
11 | CCn1c(CC[C@@H](C)[C@H]2CC[C@H]3[C@@H]4CC=C5C[C@@H](O)CC[C@]5(C)[C@H]4CC[C@]23C)n[nH]c1=S [Example 353, 4-ethyl-5-((R)-3-((3S,8S,9S,10R,13R,14S,17R)-3-hydroxy-10,13-dimethyl-2,3,4,7,8,9,10,11,12,13,14,15,16,17-tetradecahydro-1H-cyclopenta[a]phenanthren-17-yl)butyl)-2,4-dihydro-3H-1,2,4-triazole-3-thione] | > 10000 | < 250
12 | C[C@H](CCC(=O)N1CCN(C(=O)OC2CC2)CC1)[C@H]1CC[C@H]2[C@@H]3CC=C4C[C@@H](O)CC[C@]4(C)[C@H]3CC[C@]12C [Example 340, cyclopropyl4-[(4R)-4-[(1R,3aS,3bS,7S,9aR,9bS,11aR)-7-hydroxy-9a,11a-dimethyl-1H,2H,3H,3aH,3bH,4H,6H,7H,8H,9H,9aH,9bH,10H,11H,11aH-cyclopenta[a]phenanthren-1-yl]pentanoyl]piperazine-1-carboxylate] | > 10000 | < 250
13 | COC([C@@H]1CCN(C(=O)CC[C@@H](C)[C@H]2CC[C@H]3[C@@H]4CC=C5C[C@@H](O)CC[C@]5(C)[C@H]4CC[C@]23C)C1)(C(F)(F)F)C(F)(F)F [Example 331, (4R)-4-[(1R,3aS,3bS,7S,9aR,9bS,11aR)-7-hydroxy-9a,11a-dimethyl-1H,2H,3H,3aH,3bH,4H,6H,7H,8H,9H,9aH,9bH,10H,11H,11aH-cyclopenta[a]phenanthren-1-yl]-1-[(3R)-3-(1,1,1,3,3,3-hexafluoro-2-methoxypropan-2-yl)pyrrolidin-1-yl]pentan-1-one] | > 10000 | < 250
14 | C[C@H](CCC(=O)N1CCN(C(=O)OC2CC2)C[C@@H]1C)[C@H]1CC[C@H]2[C@@H]3CC=C4C[C@@H](O)CC[C@]4(C)[C@H]3CC[C@]12C [Example 584] | > 10000 | < 250
15 | C[C@H](CC(=O)N1CCN(c2ccncn2)CC1)[C@H]1CC[C@H]2[C@@H]3CC=C4C[C@@H](O)CC[C@]4(C)[C@H]3CC[C@]12C [Example 595, (R)-3-((3S,8S,9S,10R,13R,14S,17R)-3-hydroxy-10,13-dimethyl-2,3,4,7,8,9,10,11,12,13,14,15,16,17-tetradecahydro-1H-cyclopenta[a]phenanthren-17-yl)-1-(4-(pyrimidin-4-yl)piperazin-1-yl)butan-1-one] | > 10000 | 1000 to 10000
16 | C[C@H](CCC(=O)N1CCN(c2nccc3ccncc23)CC1)[C@H]1CC[C@H]2[C@@H]3CC=C4C[C@@H](O)CC[C@]4(C)[C@H]3CC[C@]12C [Example 628, (R)-1-(4-(2,7-naphthyridin-1-yl)piperazin-1-yl)-4-((3S,8S,9S,10R,13R,14S,17R)-3-hydroxy-10,13-dimethyl-2,3,4,7,8,9,10,11,12,13,14,15,16,17-tetradecahydro-1H-cyclopenta[a]phenanthren-17-yl)pentan-1-one] | > 10000 | < 250
17 | CC(C)OC(=O)N1CCN(C(=O)CC[C@@H](C)[C@H]2CC[C@H]3[C@@H]4CC=C5C[C@@H](O)CC[C@]5(C)[C@H]4CC[C@]23C)C[C@@H]1C [Example 576, isopropyl(S)-4-((R)-4-((3S,8S,9S,10R,13R,14S,17R)-3-hydroxy-10,13-dimethyl-2,3,4,7,8,9,10,11,12,13,14,15,16,17-tetradecahydro-1H-cyclopenta[a]phenanthren-17-yl)pentanoyl)-2-methylpiperazine-1-carboxylate] | > 10000 | < 250
18 | C[C@H](CCC(=O)N(c1ccncc1)C1CC1)[C@H]1CC[C@H]2[C@@H]3CC=C4C[C@@H](O)CC[C@]4(C)[C@H]3CC[C@]12C [Example 548, (4R)-4-[(1R,3aS,3bS,7S,9aR,9bS,11aR)-7-hydroxy-9a,11a-dimethyl-1H,2H,3H,3aH,3bH,4H,6H,7H,8H,9H,9aH,9bH,10H,11H,11aH-cyclopenta[a]phenanthren-1-yl]-N-cyclopropyl-N-(pyridin-4-yl)pentanamide] | 250 to 1000 | < 250
19 | C[C@H](CCc1cccnn1)[C@H]1CC[C@H]2[C@@H]3CC=C4C[C@@H](O)CC[C@]4(C)[C@H]3CC[C@]12C [Example 134, (1R,3aS,3bS,7S,9aR,9bS,11aR)-9a,11a-dimethyl-1-[(2R)-4-(pyridazin-3-yl)butan-2-yl]-1H,2H,3H,3aH,3bH,4H,6H,7H,8H,9H,9aH,9bH,10H,11H,11aH-cyclopenta[a]phenanthren-7-ol] | 250 to 1000 | > 10000
